Laboratory results published in patent publication US20150140123A1, “Protein expression analyses for identifying genotoxic compounds” (Merck Patent GmbH, priority 2012, published 2015).
Structures can show the parent of a compound that is named as a salt.

Test system: HepG2 cells
Assay: High content imaging cytotoxicity parameters: selected cell count per valid field (SCC) and CMFDA cytoplasm average intensity
Protocol: HepG2 cells (Order No. HB-8065, Lot. 58483209, ATCC, Manassas, USA) were cultured in DMEM/F12 with L-Glutamine and 15 mM Hepes supplemented with 10% (v/v) FBS, 1% (v/v) penicillin (10 kU/ml)/streptomycin (10 mg/ml) solution, 0.1% (v/v) gentamicin (50 mg/ml), and 1 mM sodium pyruvate at 37° C. and 5% CO2 in culture flasks. Depending on the experiment, an appropriate number of cells were seeded onto plates after detaching of the cells using trypsin and cells were cultured at 37° C. and 5% CO2 for 24 h prior to treatment. All experiments were performed three times with cells of passages 4-20.
Cells were seeded onto black Poly-D-Lysin coated 96-well-plates (BD Biocoat, Franklin Lakes, USA) (0.02×10^6 cells/well) and left 24 h for adherence and then treated with test compounds at a maximum concentration of 1 mM which is recommended by the ICH S2(R1) guideline (EMA, 2011). For each compound, nine concentrations were tested with 2-fold serial dilutions. DMSO 1% (v/v) served as vehicle control for the experiments. The treatment procedure was different for direct-genotoxic and pro-genotoxic compounds. The treatment for direct genotoxic compounds was ongoing and was repeated daily over 48 h. Pro-genotoxic compounds were incubated for 6 h together with metabolic activation system (to limit the cytotoxic effect of the S9-mixture). After this period, cells were washed with cell media followed by 18-repeated daily over 48 h. The metabolic activation system used consisted of the following components and concentrations: 8 mM MgCl2, 32.8 mM KCl, 12 mM NADPH, 124 mM phosphate buffer and 2500 pmol/ml cytochrome P450 (CYP) content in the pre-mixture corresponding to 2.4 mM MgCl2, 9.8 mM KCl, 3.6 mM NADPH, 37.2 mM phosphate buffer, and 750 pmol/ml CYP as final concentrations after dilution 1:3.33 with cell culture media.
After treatment, cells were rinsed with PBS (Gibco Invitrogen, Karlsruhe, Germany), and then stained with 10 μM CellTracker Green 5-Chloromethylfluorescein Diacetate (CMFDA) (Invitrogen, Karlsruhe, Germany) in cell culture media for 30 min. CMFDA is per se non-fluorescent and is hydrolyzed by esterase in viable cells to a fluorescent-dye. The reaction with thiol groups leads to a cell-impermeable fluorescent-dye-adduct. The esterase activity can be used as an indicator for viability of cells (Papadopoulos et al., 1994, J Immunol Methods 177, 101-11). Afterwards, cells were washed with PBS and fixed with 3.7% Formaldehyde (Sigma-Aldrich, Taufkirchen, Germany) in PBS for 20 min. After that, cells were washed with PBS and blocked and permeabilized with 2% donkey serum (Millipore, Schwalbach, Germany) and 0.25% Triton X-100 (Sigma-Aldrich, Taufkirchen, Germany) in PBS for 30 min. Primary antibodies were diluted in Blocking/Permeabilization solution to final concentrations of 4 μg/ml anti-p-Chk1 (Ser345) goat polyclonal antibody IgG (santa cruz, Santa Cruz, USA), 4 μg/ml anti-p-ATM (Ser1981) mouse monoclonal antibody IgG1K (Millipore, Schwalbach, Germany) and added to the cells. After incubation for 16-18 h, cells were washed with 0.05% Tween 20 (Calbiochem, Darmstadt, Germany) in PBS, and the secondary antibody/16 μM Hoechst staining solution Blocking/Permeabilization solution was added. Secondary antibodies were diluted 1:400 (Alexa Fluor 555 donkey anti-goat, Alexa Fluor 647 donkey anti-mouse, Invitrogen, Karlsruhe, Germany). After an incubation of 1 h, followed by two additional washing steps with 0.05% Tween 20, cells were washed with PBS and finally PBS was added and cells were measured.
Image acquisition was performed on the ArrayScan VTI HCS Reader (Cellomics, Pittsburgh, USA) using a 20× objective. To detect enough cells, 50 images starting at the middle of each well were gathered.
• Channel 1: selected cell count per valid field • Channel 2: CMFDA cytoplasm average intensity • Channel 3: p-Chk1 (Ser345) nucleus average intensity • Channel 4: p-ATM (Ser1981) nucleus average intensity

[1] = HepG2 cells, 48 h, CMFDA cytoplasm average intensity, with rat liver S9 (+S9)
[2] = HepG2 cells, 48 h, CMFDA cytoplasm average intensity, without metabolic activation (−S9)
[3] = HepG2 cells, 48 h, selected cell count per valid field, with rat liver S9 (+S9)
[4] = HepG2 cells, 48 h, selected cell count per valid field, without metabolic activation (−S9)

Compound | CMFDA +S9 highest conc. <50% cytotox. over control [1] | CMFDA −S9 highest conc. <50% cytotox. over control [2] | SCC +S9 highest conc. <50% cytotox. over control [3] | SCC −S9 highest conc. <50% cytotox. over control [4] | CMFDA +S9 highest conc. <50% cytotox. over control (human, 48 h) | CMFDA −S9 highest conc. <50% cytotox. over control (human, 48 h) | SCC +S9 highest conc. <50% cytotox. over control (human, 48 h) | SCC −S9 highest conc. <50% cytotox. over control (human, 48 h) | further results
Sodium xylene sulfonate | 1000 µM | 1000 µM | 1000 µM | 1000 µM |  |  |  |  | 
O=C1OC(=O)c2ccccc21 [Phthalic anhydride] | 1000 µM | 1000 µM | 1000 µM | 1000 µM |  |  |  |  | 
O=C1CCCCC1 [Cyclohexanone] |  |  |  |  | 1000 µM | 1000 µM | 1000 µM | 1000 µM | 
COc1cc([C@@H]2c3cc4c(cc3[C@@H](O[C@@H]3O[C@@H]5CO[C@@H](C)O[C@H]5[C@H](O)[C@H]3O)[C@H]3COC(=O)[C@H]23)OCO4)cc(OC)c1O [Etoposide] |  |  |  |  | 1000 µM | 1000 µM | 1000 µM |  | 
Cn1c(N)nc2ncc(-c3ccccc3)cc21 [PhIP•HCl, 2-Amino-1-methyl-6-phenylimidazo[4,5-f]pyridine] | 1000 µM | 500 µM | 1000 µM | 500 µM |  |  |  |  | 
CC(=O)O[C@H]1C(=O)[C@@]2(C)[C@H]([C@H](OC(=O)c3ccccc3)[C@]3(O)C[C@H](OC(=O)[C@H](O)[C@@H](NC(=O)c4ccccc4)c4ccccc4)C(C)=C1C3(C)C)[C@]1(OC(C)=O)CO[C@@H]1C[C@@H]2O [Taxol] |  |  |  |  | 1000 µM | 1000 µM | 500 µM | 1000 µM | 
OCCNCCO [Diethanolamine] |  |  |  |  | 1000 µM | 1000 µM | 1000 µM | 1000 µM | 
CCCCC(CC)COP(=O)(OCC(CC)CCCC)OCC(CC)CCCC (stereo not shown) [Tris(2-ethylhexyl)phosphate] | 1000 µM | 7.813 µM | 1000 µM | 500 µM |  |  |  |  | 
CC1(C)S[C@@H]2[C@H](NC(=O)[C@H](N)c3ccccc3)C(=O)N2[C@H]1C(=O)O [Ampicillin trihydrate] |  |  |  |  | 1000 µM | 1000 µM | 1000 µM | 1000 µM | 
O=[As]O [Sodium arsenite] | 125 µM | 62.5 µM | 125 µM | 7.81 µM |  |  |  |  | 
Nc1nc(N)nc(N)n1 [Melamine] | 1000 µM | 1000 µM | 1000 µM | 1000 µM |  |  |  |  | 
C[N+](C)(C)CCCl.[Cl-] [(2-chloroethyl)trimethyl-ammonium chloride] |  |  |  |  |  |  |  |  | CMFDA +S9 highest conc. <50% cytotox. over control (human): 1000 µM; CMFDA −S9 highest conc. <50% cytotox. over control (human): 1000 µM; SCC +S9 highest conc. <50% cytotox. over control (human): 1000 µM; SCC −S9 highest conc. <50% cytotox. over control (human): 1000 µM
OC[C@@H](O)[C@@H](O)[C@H](O)[C@H](O)CO [D-mannitol] |  |  |  |  | 1000 µM | 1000 µM | 1000 µM | 1000 µM | 
Oc1cccc(O)c1 [1,3-Dihydroxybenzene (resorcinol), 1,3-Dihydroxybenzene] |  |  |  |  | 500 µM | 1000 µM | 1000 µM | 1000 µM | 
O=C(N[C@H](CO)[C@H](O)c1ccc([N+](=O)[O-])cc1)C(Cl)Cl [Chloramphenicol] |  |  |  |  | 1000 µM | 1000 µM | 1000 µM | 1000 µM | 
Oc1ccc(O)cc1 [Hydroquinone] |  |  |  |  | 1000 µM | 250 µM | 1000 µM | 250 µM | 
c1ccc2c(c1)cc1ccc3cccc4ccc2c1c34 [Benzo[a]pyrene] |  |  |  |  |  |  |  |  | CMFDA +S9 highest conc. <50% cytotox. over control (human): 125 µM; CMFDA −S9 highest conc. <50% cytotox. over control (human): 125 µM; SCC +S9 highest conc. <50% cytotox. over control (human): 125 µM; SCC −S9 highest conc. <50% cytotox. over control (human): 3.91 µM
Cc1c2ccccc2c(C)c2c1ccc1ccccc12 [7,12-Dimethylbenz[a]anthracene] |  |  |  |  |  |  |  |  | CMFDA +S9 highest conc. <50% cytotox. over control (human): 1000 µM; CMFDA −S9 highest conc. <50% cytotox. over control (human): 250 µM; SCC +S9 highest conc. <50% cytotox. over control (human): 500 µM; SCC −S9 highest conc. <50% cytotox. over control (human): 125 µM
COC(N)=O [Methyl carbamate] | 1000 µM | 1000 µM | 1000 µM | 1000 µM |  |  |  |  | 
O=C1NS(=O)(=O)c2ccccc21.[Na] [Sodium saccharin] |  |  |  |  |  |  |  |  | CMFDA +S9 highest conc. <50% cytotox. over control (human): 1000 µM; CMFDA −S9 highest conc. <50% cytotox. over control (human): 1000 µM; SCC +S9 highest conc. <50% cytotox. over control (human): 1000 µM; SCC −S9 highest conc. <50% cytotox. over control (human): 1000 µM
Nc1ccccc1C(=O)O [o-Anthranilic acid] | 1000 µM | 1000 µM | 1000 µM | 1000 µM |  |  |  |  | 
OCc1ccccc1 [Benzyl alcohol] |  |  |  |  | 1000 µM | 1000 µM | 1000 µM | 1000 µM | 
Cc1noc(NS(=O)(=O)c2ccc(N)cc2)c1C [Sulfisoxazole] |  |  |  |  | 1000 µM | 1000 µM | 1000 µM | 1000 µM | 
Nc1ccc(Cl)cc1 [p-chloroaniline] |  |  |  |  |  |  |  |  | CMFDA +S9 highest conc. <50% cytotox. over control (human): 1000 µM; CMFDA −S9 highest conc. <50% cytotox. over control (human): 1000 µM; SCC +S9 highest conc. <50% cytotox. over control (human): 1000 µM; SCC −S9 highest conc. <50% cytotox. over control (human): 1000 µM
COS(C)(=O)=O [Methylmethane sulfonate] |  |  |  |  | 250 µM | 500 µM | 500 µM | 250 µM | 
CC(=O)[C@H]1CC[C@H]2[C@@H]3CCC4=CC(=O)CC[C@]4(C)[C@H]3CC[C@]12C [Progesterone] |  |  |  |  | 250 µM | 62.5 µM | 500 µM | 125 µM | 
